From the NIST ThermoML archive (doi:10.1016/j.tca.2012.11.015)

Assay: molar heat capacity at constant pressure
Details: 101.33 kPa, Crystal, Small sample (50 mg) DSC

[F-].[F-].[F-].[F-].[Li+].[Lu+3] [lithium lutetium fluoride]
Details	molar heat capacity at constant pressure [J/K/mol]
319.1 K	130.85
320.6 K	131.02
322.3 K	131.32
324.2 K	132.25
326.3 K	132.67
328.5 K	133
330.9 K	133.72
333.4 K	133.98
336 K	134.52
338.8 K	134.79
341.6 K	135.17
344.6 K	135.52
347.6 K	135.82
350.6 K	136.23
353.7 K	136.42
356.9 K	136.86
360.1 K	137.1
363.4 K	137.35
366.6 K	137.71
369.9 K	138.05
373.2 K	138.18
376.4 K	138.33
379.7 K	138.6
382.9 K	138.79
386.1 K	139.07
389.3 K	139.36
392.5 K	139.51
395.7 K	139.75
398.8 K	140.02
401.9 K	140.28
405 K	140.35
408.1 K	140.55
411.1 K	140.85
414.1 K	141
417.1 K	141.21
420.1 K	141.55
423.1 K	141.68
426 K	141.88
428.9 K	142.09
431.8 K	142.34
434.6 K	142.51
437.4 K	142.74
440.3 K	142.93
443.1 K	143.15
445.8 K	143.38
448.6 K	143.52
451.3 K	143.71
454.1 K	144.09
456.8 K	144.11
459.5 K	144.4
462.2 K	144.65
464.9 K	144.87
467.6 K	145.03
470.3 K	145.2
473 K	145.33
475.6 K	145.69
478.3 K	146.04
480.9 K	146.21
483.5 K	146.26
486.2 K	146.62
488.8 K	146.64
491.4 K	146.9
494 K	147.09
496.6 K	147.19
499.2 K	147.37
501.8 K	147.62
504.4 K	147.87
506.9 K	148.03
509.5 K	148.01
512.1 K	148.31
514.7 K	148.51
517.2 K	148.78
519.8 K	148.72
522.4 K	148.99
524.9 K	149.11
527.5 K	149.23
530 K	149.4
532.6 K	149.69
535.1 K	149.98
537.6 K	150.02
540.2 K	150.02
542.7 K	150.2
545.2 K	150.41
547.8 K	150.44
550.3 K	150.65
552.8 K	150.77
555.4 K	150.97
557.9 K	151.21
560.4 K	151.31
562.9 K	151.22
565.4 K	151.35
567.9 K	151.77
570.4 K	152.1
572.9 K	151.97
575.4 K	152.01
577.9 K	152.43
580.4 K	152.52
582.9 K	152.55
585.4 K	152.99
587.9 K	153.06
590.4 K	153.4
592.8 K	153.37
595.3 K	153.54
597.8 K	153.59
600.3 K	153.68
602.8 K	153.91
605.3 K	153.92
607.7 K	153.98
610.2 K	154.22
612.7 K	154.27
615.2 K	154.37
617.6 K	154.5
620.1 K	154.88
622.6 K	154.95
625.1 K	154.9
627.5 K	155.19
630 K	155.25
632.5 K	155.38
634.9 K	155.28
637.4 K	155.32
639.9 K	155.57
642.3 K	155.79
644.8 K	156.13
647.3 K	155.71
649.7 K	156.15
652.2 K	156.38
654.7 K	156.1
657.1 K	156.18
659.6 K	156.74
662.1 K	156.82
664.5 K	156.91
667 K	157.05
669.5 K	157.26
671.9 K	157.26
674.4 K	157.34
676.9 K	157.51
679.3 K	157.82
681.8 K	157.78
684.3 K	157.7
686.7 K	157.84
689.2 K	158.11
691.6 K	158.21
694.1 K	158.28
696.6 K	158.3
699 K	158.66
701.5 K	158.32
704 K	158.88
706.4 K	158.86
708.9 K	158.73
711.3 K	159.06
713.8 K	159.12
716.3 K	159.23
718.7 K	159.5
721.2 K	159.17
723.7 K	159.42
726.1 K	159.52
728.6 K	159.81
731 K	159.67
733.5 K	159.82
736 K	160.19
738.4 K	160.21
740.9 K	159.84
743.4 K	160.74
745.8 K	160.23
748.3 K	160.71
750.8 K	160.51
753.2 K	160.71
755.7 K	160.47
758.1 K	161.09
760.6 K	160.99
763.1 K	161.08
765.5 K	161.21
768 K	161.19
770.5 K	161.33
773 K	161.68
775.4 K	161.44
777.9 K	161.42
780.4 K	161.69
782.8 K	161.76
785.3 K	161.68
787.8 K	161.79
790.2 K	161.81
792.7 K	161.94
795.2 K	162.55
797.7 K	162.37
800.1 K	162.27
802.6 K	162.36
805.1 K	162.55
807.5 K	162.68
810 K	162.67
812.5 K	162.66
815 K	162.95
817.4 K	162.84
819.9 K	162.94
822.4 K	163.1
824.9 K	163.41
827.3 K	163.19
829.8 K	163.53
832.3 K	163.61
834.8 K	163.59
837.3 K	163.47
839.8 K	163.45
842.2 K	163.53
844.7 K	163.85
847.2 K	163.88
849.6 K	163.86
852.1 K	163.85
854.6 K	163.88
857.1 K	163.9
859.6 K	164.11
862.1 K	164.25
864.6 K	164.33
867 K	164.11
869.5 K	164.63
872 K	164.68
874.5 K	164.55
877 K	164.67
879.5 K	164.73
881.9 K	165.01
884.4 K	164.63
886.9 K	165.15
889.4 K	164.71
891.9 K	164.79
894.4 K	164.9
896.9 K	165
899.4 K	165.27
901.8 K	165.61
904.3 K	165.53
906.8 K	165.9
909.3 K	165.68
911.8 K	166.05
914.3 K	165.94
916.8 K	165.71
919.3 K	165.93
921.7 K	165.89
924.2 K	166.2
926.7 K	166.37
929.2 K	166.53
931.7 K	166.66
934.2 K	166.07
936.7 K	166.68
939.2 K	167.32
941.7 K	167.41
944.2 K	167.52
946.7 K	167.43
949.2 K	167.53
951.7 K	167.51
